Experiments:
CRF-1 = biological target: T1, CRF-1 (UniProt P34998); test: CRF-1 receptor antagonism, HTRF cAMP assay in CHO cells; format: cell-based, human; settings: Biological data Table 2; inhibition of CRF induced cAMP response in CHO cells, EC50 concentration of CRF
T1 sequence (P34998 1-415): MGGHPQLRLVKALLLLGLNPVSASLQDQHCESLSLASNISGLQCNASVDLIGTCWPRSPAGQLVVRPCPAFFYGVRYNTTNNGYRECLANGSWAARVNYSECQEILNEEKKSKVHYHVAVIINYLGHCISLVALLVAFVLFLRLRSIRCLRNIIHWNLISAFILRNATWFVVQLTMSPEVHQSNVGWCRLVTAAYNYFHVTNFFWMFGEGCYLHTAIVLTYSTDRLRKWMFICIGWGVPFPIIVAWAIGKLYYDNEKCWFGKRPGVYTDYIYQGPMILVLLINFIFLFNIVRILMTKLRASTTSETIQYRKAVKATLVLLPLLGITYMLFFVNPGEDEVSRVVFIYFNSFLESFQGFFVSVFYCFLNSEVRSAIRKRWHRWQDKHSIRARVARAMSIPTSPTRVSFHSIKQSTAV
Procedure: (§1) The CRF-1 and CRF-2 receptor antagonistic activity of the agents of the invention has been determined in vitro in the following assay:
(§2) Chinese hamster ovary (CHO) cells expressing either the human or rat recombinant CRF-1 or human CRF-2α (Chen et al, Proc Natl Acad Sci USA 90, 8967-8971, 1993; Liaw et al, Endocrinology 137, 72-77, 1996) are propagated in Dulbecco's modified Eagle medium supplemented with 10% foetal calf serum, non-essential amino acids, 100 U/ml penicillin, 100 mg/l streptomycin and 1 g/l geneticin. CHO cells expressing the rat CRF-2β receptor (Wu et al, Endocrinology 148, 1675-1687, 2007) are propagated in HAM's-F12 Glutamax supplemented with 10% foetal calf serum, 100 IU/ml penicillin, 100 mg/l streptomycin, 600 μg/ml hygromycin, 10 μg/ml blasticidin and induced with 1 μg/ml of tetracyclin for 24 hours prior to experimentation. For cyclic AMP determinations the Homogeneous Time-Resolved Fluoresce (HTRF) cAMP dynamic 2 kit (Cisbio International, France) was used as per manufacturers' instructions. CHO cells, previously cryopreserved at 3×10^6 viable cells per ml of cell recovery media (Cat no. 12648-010, Invitrogen), were thawed, centrifuged for 7 mins at 1200 rpm and resuspended in serum free media to give a concentration of 0.5×10^6 cells per/ml. Compounds of the invention, prepared in DMSO, and subsequently diluted 50 fold in assay buffer (1× Hanks balanced salt solution, 0.2% (w/v) bovine serum albumin, 1.7 mM isobutylmethylxanthine and 10 mM Hepes, pH7.4) were then added onto the 384 well low volume black assay plate (Corning Inc, US, Cat. 3676). 2000 cells/well were then added to the assay plate further diluting the compound 2 fold and then the plate was incubated for 15 mins at room temperature. Following incubation, buffer containing a 5 times final concentration of agonist, typically r/h CRF is added to the plate and incubated for 30 min at room temperature. Finally, d2 dye labeled cAMP and cryptate labeled anti-cAMP antibody, both made in lysis buffer, are added to the plate followed by a settling period of 1 hour at room temperature. During the settling period cAMP produced by the cells competes with the d2 labelled cAMP for the anti-cAMP cryptate. The plate is read on the Pherastar (BMG, Germany). Increasing levels of endogenous cAMP produced by cells can be followed by a decrease of FRET fluorescent signal and vice versa. Values represented by a change in arbitrary fluorescence units are converted into cAMP concentrations by use of a standard curve, the reagents for which are supplied with the kit. Antagonist dose response curves (1 nM-31.6 μM) are constructed and tested in the presence of an EC50 concentration of CRF relevant to the receptor (hCRF-1=3 nM, hCRF-2α=2 nM, rCRF-1=1 nM and rCRF-2β=0.1 nM). IC50 values of antagonists are calculated by fitting the percent inhibition of CRF induced cAMP response by increasing concentrations of the antagonists. The fit is performed using the nonlinear logistic function of the Activitybase software package v 5.4.5.27 (IDBS, UK).

CRF-2 = biological target: T2, CRF-2 (UniProt Q13324); test: CRF-2 receptor antagonism, HTRF cAMP assay in CHO cells; format: cell-based, human; settings: Biological data Table 2; inhibition of CRF induced cAMP response in CHO cells, EC50 concentration of CRF
T2 sequence (Q13324 1-411): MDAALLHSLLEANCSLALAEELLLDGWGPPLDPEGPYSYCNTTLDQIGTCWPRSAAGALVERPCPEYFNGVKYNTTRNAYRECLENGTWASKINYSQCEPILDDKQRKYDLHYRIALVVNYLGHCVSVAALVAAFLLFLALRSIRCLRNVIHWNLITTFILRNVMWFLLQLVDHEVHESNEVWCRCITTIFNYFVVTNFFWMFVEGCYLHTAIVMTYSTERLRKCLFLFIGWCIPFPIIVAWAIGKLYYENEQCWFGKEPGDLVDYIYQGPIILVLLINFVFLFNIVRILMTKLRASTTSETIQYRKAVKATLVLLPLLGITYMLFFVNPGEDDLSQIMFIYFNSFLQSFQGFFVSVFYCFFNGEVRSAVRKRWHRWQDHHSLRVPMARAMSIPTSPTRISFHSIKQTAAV
Procedure: as §1, §2

Structure (SMILES)	IC50 (CRF-1) [nM]	IC50 (CRF-2) [µM]
Cc1cc2c(cc1C)C(C)(F)C(=O)N2C[C@H]1CC[C@H](NC(=O)c2cc(Cl)cnc2C)CC1 (single isomer, unassigned; enantiomer 1) [Example 2.54, Enantiomer 1 of Trans-5-Chloro-N-[4-(3-fluoro-3,5,6-trimethyl-2-oxo-2,3-dihydro-indol-1-ylmethyl)-cyclohexyl]-2-methyl-nicotinamide]	59	4.76
Cc1cc2c(cc1C)C(C)(F)C(=O)N2C[C@H]1CC[C@H](NC(=O)c2cc(Cl)cnc2C)CC1 (single isomer, unassigned; enantiomer 2) [Example 2.55, Enantiomer 2 of Trans-5-Chloro-N-[4-(3-fluoro-3,5,6-trimethyl-2-oxo-2,3-dihydro-indol-1-ylmethyl)-cyclohexyl]-2-methyl-nicotinamide]	60	4.53
Cc1ncc(Cl)cc1C(=O)N[C@H]1CC[C@H](CN2C(=O)C(C)(C)c3ccccc32)CC1 [Example 1.3, Trans-5-chloro-N-[4-(3,3-dimethyl-2-oxo-2,3-dihydro-indol-1-ylmethyl)-cyclohexyl]-2-methyl-icotinamide]	48	3.8
Cc1ncc(Cl)cc1C(=O)N[C@H]1CC[C@H](CN2C(=O)C3(CC3)c3cc(F)ccc32)CC1 [Example 2.6, Trans-5-chloro-N-[-4-((5′-fluoro-2′-oxospiro[cyclopropane-1,3′-indoline]-1′-yl)methyl)cyclohexyl]-2-methyl nicotinamide]	12	0.811
Cc1ncc(Cl)cc1C(=O)N[C@H]1CC[C@H](CN2C(=O)C(C)(C)c3cccc(Cl)c32)CC1 [Example 2.15, Trans-5-Chloro-N-[4-(7-chloro-3,3-dimethyl-2-oxo-2,3-dihydro-indol-1-ylmethyl)-cyclohexyl]-2-methyl-nicotinamide]	17	0.936
COc1cccc2c1N(C[C@H]1CC[C@H](NC(=O)c3cc(C(F)(F)F)ccc3Cl)CC1)C(=O)C2(C)C [Example 2.18, Trans-2-Chloro-N-[4-(7-methoxy-3,3-dimethyl-2-oxo-2,3-dihydro-indol-1-ylmethyl)-cyclohexyl]-5-trifluoromethyl-benzamide]	50	1.68
Cc1ncc(Cl)cc1C(=O)N[C@H]1CC[C@H](CN2C(=O)[C@@](C)(F)c3ccccc32)CC1 [Example 2.20, Trans-5-Chloro-N-[4-((S)-3-fluoro-3-methyl-2-oxo-2,3-dihydro-indol-1-ylmethyl)-cyclohexyl]-2-methyl-nicotinamide]	62	4.59
Cc1cccc2c1N(C[C@H]1CC[C@H](NC(=O)c3cc(C(F)(F)F)ccc3Cl)CC1)C(=O)C2(C)C [Example 2.23, Trans-2-Chloro-5-trifluoromethyl-N-[4-(3,3,7-trimethyl-2-oxo-2,3-dihydro-indol-1-ylmethyl)-cyclohexyl]-benzamide]	57	2.14
Cc1ncc(Cl)cc1C(=O)N[C@H]1CC[C@H](CN2C(=O)C(F)(F)c3ccc(Cl)cc32)CC1 [Example 2.26, Trans-5-Chloro-N-[4-(6-chloro-3,3-difluoro-2-oxo-2,3-dihydro-indol-1-ylmethyl)-cyclohexyl]-2-methyl-nicotinamide]	157	3.12
Cc1cccc2c1C(C)(C)C(=O)N2C[C@H]1CC[C@H](NC(=O)c2cc(Cl)cnc2C)CC1 [Example 2.27, Trans-5-Chloro-2-methyl-N-[4-(3,3,4-trimethyl-2-oxo-2,3-dihydro-indol-1-ylmethyl)-cyclohexyl]-nicotinamide]	157	4.81
COc1ccc2c(c1)N(C[C@H]1CC[C@H](NC(=O)c3cc(Cl)cnc3C)CC1)C(=O)C2(C)C [Example 2.28, Trans-5-Chloro-N-[4-(6-methoxy-3,3-dimethyl-2-oxo-2,3-dihydro-indol-1-ylmethyl)-cyclohexyl]-2-methyl-nicotinamide]	38	3.05
Cc1ncc(Cl)cc1C(=O)N[C@H]1CC[C@H](CN2C(=O)C(C)(C)c3ccc(Cl)cc32)CC1 [Example 2.29, Trans-5-Chloro-N-[4-(6-chloro-3,3-dimethyl-2-oxo-2,3-dihydro-indol-1-ylmethyl)-cyclohexyl]-2-methyl-nicotinamide]	14	4.62
CCn1c(=O)n(C[C@H]2CC[C@H](NC(=O)c3cc(Cl)cnc3C)CC2)c2ccccc21 [Example 2.46, Trans-5-Chloro-N-[4-(3-ethyl-2-oxo-2,3-dihydro-benzoimidazol-1-ylmethyl)-cyclohexyl]-2-methyl-nicotinamide]	44	0.256
Cc1ncc(Cl)cc1C(=O)N[C@H]1CC[C@H](Cn2c(=O)n(CC(C)C)c3ccccc32)CC1 [Example 2.47, Trans-5-Chloro-N-[4-(3-isobutyl-2-oxo-2,3-dihydro-benzoimidazol-1-ylmethyl)-cyclohexyl]-2-methyl-nicotinamide]	18	0.296
Cc1ncc(Cl)cc1C(=O)N[C@H]1CC[C@H](Cn2c(=O)n(C)c3ccccc32)CC1 [Example 2.50, Trans-5-Chloro-2-methyl-N-[4-(3-methyl-2-oxo-2,3-dihydro-benzoimidazol-1-ylmethyl)-cyclohexyl]-nicotinamide]	86	3.56
O=C(N[C@H]1CC[C@H](CN2C(=O)Cc3ccc(F)cc32)CC1)c1cc(C(F)(F)F)ccc1Cl [Example 3.2, Trans-2-Chloro-N-[4-(6-fluoro-2-oxo-2,3-dihydro-indol-1-ylmethyl)-cyclohexyl]-5-trifluoromethyl-bcnzamide]	47	3.87
CCn1c(=O)n(C[C@H]2CC[C@H](NC(=O)c3cc(C(F)(F)F)ccc3Cl)CC2)c2ccccc21 [Example 3.4, Trans-2-Chloro-N-[4-(3-ethyl-2-oxo-2,3-dihydro-bcnzoimidazol-1-ylmethyl)-cyclohexyl]-5-trifluoromethyl-benzamide]	18	1.95
